From publication PMC4823711, “Allosteric Partial Inhibition of Monomeric Proteases. Sulfated Coumarins Induce Regulation, not just Inhibition, of Thrombin” (Scientific Reports, 2016)
“Also recorded” adds a separate entry of the source.

Legend:
thrombin [1] = conditions: cited from earlier work; for efficacy of thrombin inhibition (ΔY): orthosteric inhibitors
thrombin [2] = biological target: thrombin (Homo sapiens, UniProt P00734); assay: Chromogenic substrate hydrolysis assay, thrombin inhibition (Spectrozyme TH); type: biochemical; parameters: 6 nM plasma α-thrombin; purchased Haematologic Technologies (Essex Junction, VT); conditions: for thrombin inhibition (in words): up to 250 μM; for efficacy of thrombin inhibition (ΔY) / IC50: pH 7.4, 25 °C; for efficacy of thrombin inhibition (ΔY): at saturation; for IC50: read-out: IC50 against thrombin
Procedure: Chromogenic substrate hydrolysis assay was used to measure potency of inhibition, as previously reported. The assay was performed using Flexstation III (Molecular Devices, Sunnyvale, CA) by monitoring substrate hydrolysis at 405 nm. For thrombin and its mutants, 180 μL of buffer (20 mM Tris-HCl, 100 mM NaCl, 2.5 mM CaCl2, 0.1% (polyethylene glycol) PEG 8000, pH 7.4) was added to each well followed by 5 μL of 240 nM thrombin and 10 μL of sulfated coumarin in DMSO to give 0.002 to 250 μM final concentration (or 10 μL of DMSO alone). After incubation for 10 min at 25 °C, 5 μL of 2 mM Spectrozyme TH was added to each well simultaneously and allowed to react for 60 seconds at 25 °C while simultaneously monitoring the reaction to obtain the rate of increase in A405. Identical experimental conditions were used for reactions in the presence of antithrombin, except for 100 nM of antithrombin added prior to the addition of the substrate.
For factor XIa inhibition studies, 85 μL of buffer (50 mM Tris-HCl, 150 mM NaCl, 0.1% PEG 8000, 0.02% Tween 80, pH 7.4) was added to each well, followed by 7 μL of 15.3 nM enzyme and 3 μL of sulfated coumarin (3.75–500 μM final concentration) and incubated for 10 min at 37 °C. After the incubation period, 5 μL of 6.9 mM S-2366 was added to each well simultaneously and allowed to react for 300 sec at 37 °C. For factor Xa assay, 180 μL of buffer (20 mM Tris-HCl, 100 mM NaCl, 2.5 mM CaCl2, 0.1% PEG 8000, 0.02% Tween 80, pH 7.4) was added to each well followed by 5 μL of 43.5 nM enzyme, 10 μL of sulfated coumarin (0.002–250 μM final concentration). After a 10 min incubation, 5 μL of 5 mM Spectrozyme FXa was added to each well simultaneously and allowed to react for 300 seconds at 37 °C. The slopes generated from each experiment were used to calculate the fractional residual activity (Y) at each concentration of the inhibitor, and analyzed using logistic equation 1, in which YM is the maximum efficacy, Y0 is minimum efficacy and HS is the Hill slope.

thrombin [3] = biological target: thrombin; parameters: method as in PMID 2007587; conditions: read-out: affinity for thrombin; cited from earlier work

In the case of [H]/N=C(/N)c1ccc(NCc2nc3cc(C(=O)N(CCC(=O)O)c4ccccn4)ccc3n2C)cc1 [dabigatran], the “efficacy of thrombin inhibition (ΔY)” value (thrombin [1]) is listed as 100%.

With O=c1oc2ccc(OS(=O)(=O)O)cc2c(-c2ccccc2)c1-c1ccc(Cl)cc1 [2l] the “thrombin inhibition (in words)” value (thrombin [2]) was “not all 4-aryl derivatives were active”.

With O=c1oc2cc(OS(=O)(=O)O)ccc2c(-c2ccccc2)c1-c1cccc(Cl)c1 [2e] the “thrombin inhibition (in words)” value (thrombin [2]) was “active”.

In the case of O=c1oc2cc(OCCCn3cc(COc4ccc5cc(-c6ccc(OS(=O)(=O)O)cc6)c(=O)oc5c4)nn3)ccc2cc1-c1ccc(OS(=O)(=O)O)cc1 [3c], the “efficacy of thrombin inhibition (ΔY)” value (thrombin [2]) is reported as 60%.

In the case of O=c1oc2cc(OS(=O)(=O)O)ccc2c(Cc2ccc(Cl)cc2)c1-c1ccccc1 [2p], the “thrombin inhibition (in words)” value (thrombin [2]) is reported as “active”.

In the case of O=c1oc2cc(OCCCCn3cc(COc4ccc5c(-c6ccccc6)c(-c6ccc(OS(=O)(=O)O)cc6)c(=O)oc5c4)nn3)ccc2c(-c2ccccc2)c1-c1ccc(OS(=O)(=O)O)cc1 [3b], the “efficacy of thrombin inhibition (ΔY)” value (thrombin [2]) is reported as 58% and the IC50 (thrombin [2]) is reported as at most 1000 nM.

For Cc1ccc(C(=O)Nc2ccc(S(=O)(=O)O)c3cc(S(=O)(=O)O)cc(S(=O)(=O)O)c23)cc1NC(=O)c1cccc(NC(=O)Nc2cccc(C(=O)Nc3cc(C(=O)Nc4ccc(S(=O)(=O)O)c5cc(S(=O)(=O)O)cc(S(=O)(=O)O)c45)ccc3C)c2)c1 [suramin], the IC50 (thrombin [1]; read-out: IC50 of thrombin inhibition) is listed as 20 to 40 µM.

With O=c1oc2cc(OS(=O)(=O)O)ccc2c(-c2ccccc2)c1-c1ccc(Cl)cc1Cl [2k] the “thrombin inhibition (in words)” value (thrombin [2]) was “active”.

In the case of O=c1oc2cc(OS(=O)(=O)O)ccc2c(-c2ccccc2)c1-c1ccc(Br)cc1 [2o], the “thrombin inhibition (in words)” value (thrombin [2]) is reported as “not all 4-aryl derivatives were active”.

With O=c1oc2cc(OS(=O)(=O)O)ccc2c(-c2ccccc2)c1-c1ccc(OS(=O)(=O)O)cc1 [2y] the “thrombin inhibition (in words)” value (thrombin [2]) was “not all 4-aryl derivatives were active; also recorded: complete absence of inhibition potential”.

With O=c1oc2cc(OCCCn3cc(COc4ccc5c(-c6ccccc6)c(-c6ccc(OS(=O)(=O)O)cc6)c(=O)oc5c4)nn3)ccc2c(-c2ccccc2)c1-c1ccc(OS(=O)(=O)O)cc1 [3a] the “efficacy of thrombin inhibition (ΔY)” value (thrombin [2]) was 73% and the IC50 (thrombin [2]) was at most 1000 nM.

In the case of O=c1oc2c(Cl)cc(Cl)cc2c(-c2ccccc2)c1-c1ccc(OS(=O)(=O)O)cc1 [2x], the “thrombin inhibition (in words)” value (thrombin [2]) is reported as “not all 4-aryl derivatives were active”.

In the case of CC1CNc2c(cccc2S(=O)(=O)N[C@@H](CCCNC(=N)N)C(=O)N2CC[C@@H](C)C[C@@H]2C(=O)O)C1 (stereo partly shown) [argatroban], the “efficacy of thrombin inhibition (ΔY)” value (thrombin [1]) is listed as 100%.

In the case of O=c1oc2cc(OS(=O)(=O)O)ccc2c(-c2ccccc2)c1-c1ccc(O)c(OS(=O)(=O)O)c1 [2w], the “thrombin inhibition (in words)” value (thrombin [2]) is reported as “not all 4-aryl derivatives were active”.

For Heparin hexasaccharide, the “thrombin inhibition (in words)” value (thrombin [1]) is given as “not an inhibitor” and the Kd (thrombin [3]) is given as about 8 µM.

In the case of O=c1oc2cc(OS(=O)(=O)O)ccc2c(-c2ccccc2)c1-c1ccccc1Cl [2d], the “thrombin inhibition (in words)” value (thrombin [2]) is reported as “not all 4-aryl derivatives were active”.
